Source: US12622941B2, “Anticoccidial composition comprising ginkgo leaves and use thereof” (CJ CHEILJEDANG CORPORATION, priority 2020, dated 2026)

Experiments:
Eimeria acervulina [1] = assay: Eimeria acervulina sporozoite death rate by component of ginkgo leaf powder; type: cell-based
Protocol: (§1) A certain amount of oocysts of each protozoan was put in a tube containing glass beads and pulverized, and then to remove the crushed oocyst cell wall and other debris, internal sporocysts were purified using the percoll density gradient, and washed with PBS solution. A reagent comprising sodium taurocholic acid (Sigma aldrich, USA) and trypsin (Gibco, USA), respectively, was treated to sporocysts of Eimeria tenella, Eimeria acervulina and Eimeria maxima for excystation and they were incubated, and then they were washed with PBS solution once and protozoa were obtained.

Eimeria tenella [2] = assay: Cell invasion inhibition of Eimeria tenella protozoa in MDBK cells (ITS-1 PCR); type: cell-based; conditions: read-out: Cell invasion inhibitory effect of protozoan (%)
Protocol: 100,000 MDBK cells (purchased from ATCC) were aliquoted in a 24-well plate, and then incubated at a temperature of 37° C. for 12 hours. […] After removing the cells and protozoa inside the cells through pipetting, DNA was extracted from the cells, and PCR was performed using E. tenella ITS-1 (Internal transcribed spacer-1) gene-specific primers. The sequences of the used primers were described in Table 10 below. Ct values before/after washing for each material were compared and corrected with the ΔCt value of the negative control group to calculate the cell invasion inhibition rate (%) of the protozoa through treatment of each material, and the result was shown in FIG. 2 and Table 11 below.

Eimeria tenella [3] = assay: Direct killing of protozoa (sporozoites), Eimeria tenella; type: cell-based; conditions: tested 1 to 500 ppm, vs PBS control
Protocol: (§2) In the present example, protozoan (sporozoite) direct killing ability evaluation was conducted against 3 representative Eimeria kinds known to be infected in most farms (E. tenella, E. acervulina, E. maxima).
as §1

Eimeria acervulina [4] = assay: Direct killing of protozoa (sporozoites), Eimeria acervulina; type: cell-based; conditions: tested 1 to 500 ppm, vs PBS control
Protocol: as §2, §1

Eimeria maxima = assay: Direct killing of protozoa (sporozoites), Eimeria maxima; type: cell-based; conditions: tested 1 to 500 ppm, vs PBS control
Protocol: as §2, §1

Eimeria tenella [5] = assay: Intracellular propagation inhibition of Eimeria tenella protozoa in MDBK cells (ITS-1 PCR); type: cell-based; conditions: read-out: Intracellular protozoal propagation inhibitory effect (%)
Protocol: 100,000 MDBK cells (purchased from ATCC) were aliquoted in a 24-well plate, and then incubated at a temperature of 37° C. for 12 hours. The protozoan of Eimeria tenella was obtained similar to the method of Example 2 above. […] A negative control group is a MDBK cell infected by protozoa, and a positive control group means a group in which salinomycin and diclazuril solution was incubated with the Eimeria tenella protozoan. After removing the cells and protozoa inside the cells through pipetting, DNA was extracted from the cells, and PCR was performed using E. tenella ITS-1 (Internal transcribed spacer-1) gene-specific primers. The sequences of the used primers were described in Table 10 above.
Ct values before/after washing for each material were compared to calculate the cell invasion inhibition rate (%) of the protozoa and the intracellular protozoan propagation inhibition rate (%) through treatment of the material, and the result was shown in FIG. 2 and Table 11 below.

Eimeria tenella [6] = assay: In vivo anticoccidial efficacy in broilers after Eimeria tenella challenge inoculation; conditions: in feed: salinomycin 60 ppm, diclazuril 1 ppm, ginkgo leaf powder 125 ppm; for Anticoccidial index (ACI): Equation 2, out of 200 points; for Lesion index: appendix lesion score x 10; for ADG after challenge inoculation / Survival rate (%): broilers; for ADG after challenge inoculation: before to 7th day after challenge; for Survival rate (%): up to 8th day after challenge; for Oocyst index: from oocyst excretion % of infected negative control; for Daily weight gain compared to negative control group (RWG, %): relative to non-infected negative control; for Appendix lesion score: scale 0-4, 8th day after challenge
Protocol: An in vivo anticoccidial efficacy evaluation test was performed in an animal experiment facility in Gyeongsangnam-do, South Korea. One-day-old female Ross broilers were individually weighed and randomly divided into groups to use in an experiment. Matters and conditions for experimental design were described in Table 2.
For the feed, Korea Feed A1-choi product was used, and each material diclazuril (Yuhan Corporation YUHAN DICLA product), salinomycin (Cheil Bio Cheilsalino-60 product), gallic acid (Sigma product), the ginkgo leaf product prepared in Example 1-2) was added to the feed, respectively, at a concentration described in Table 3 below to be self-mixed. Antibiotics and supplements were not used in general feed and mixed feed, and no anticoccidial agent other than each material was added. Broilers were fed ad libitum throughout the experiment period. After putting 30 1-day-age broilers in cages randomly placed for each of the control group or test group and breeding, general feed (A1-choi product) was fed for 7 days, and then the mixed feed prepared above was ingested by dividing by control group or test group.
The feed formulation administered to the control group (negative control group or positive control group) and test group and whether coccidiosis was induced by Eimeria tenella were described in Table 3 below.
14-day-old broilers were orally inoculated (challenge inoculation) with 10,000 oocysts (over 90% sporulated Eimeria tenella oocysts) per individual to induce coccidiosis.
The anticoccidial efficacy by test group designed in Example 1-3 above was shown as an anticoccidial index (ACI), and the anticoccidial index was calculated by Equation 2 below. The ACI score is out of 200 points, and the higher the ACI score, the more excellent the anticoccidial ability, and when it is 120 points or more to less than 140 points, it is determined that it is effective as an anticoccidial material, and when it is 140 points or more to less than 160 points, it is determined that it is excellent as an anticoccidial material, and when it is 160 points or more, it is determined that the anticoccidial effect is very excellent (Luis Miguel De Pablos et al., Anticoccidial activity of maslinic acid against infection with Eimeria tenella in chickens, Parasitol Res, 2010). Anticoccidial index(ACI)=(survival rate after challenge inoculation (%))+(daily weight gain compared to negative control group(RWG,%))−(lesion score×10)−(fecal oocyst excretion amount index)(Equation 2) • 1) Survival rate: the number of dead individuals was recorded daily, and post mortem autopsy was performed to determine a cause of mortality, and the number of individuals who died due to causes other than coccidiosis was excluded. The survival rate (%) up to the 8th day after challenge inoculation was used for anticoccidial index calculation.
• 3) Lesion scoring: On the 8th day after challenge inoculation, an autopsy was conducted for 4 broilers per cage, and the intestines were incised and opened. Scoring was performed for each coccidial lesion in the appendix region of the broilers. The lesion scoring method was performed by referring to Johnson J K & Reid W M (1970) document (Joyce Johnson, W. Malcolm Reid, Anticoccidial drugs: Lesion scoring techniques in battery and floor-pen experiments with chickens, Experimental parasitology, 1970). The lesion score is on a scale of 0-4, and 0 point corresponds to normal appendix, and 1 point is a mild infection symptom, and 2 points is a moderate infection symptom, and 3 points is a severe infection symptom and 4 points is a case of showing a very severe infection symptom or causing death. A lesion index was calculated by multiplying the measured appendix lesion score by 10, and this was used for anticoccidial index calculation.
• 4) Fecal oocyst excretion amount: the entire feces on the 6˜8th day of challenge inoculation were collected by cage, mixed evenly, and then randomly sampled 3 times in total by 1 g each. […]

Row | SMILES | Eimeria acervulina sporozoite death rate (%) (Eimeria acervulina [1]; 8 ppm) | Eimeria acervulina sporozoite death rate (%) (Eimeria acervulina [1]; 16 ppm) | Eimeria acervulina sporozoite death rate (%) (Eimeria acervulina [1]; 31 ppm) | Eimeria acervulina sporozoite death rate (%) (Eimeria acervulina [1]; 63 ppm) | Eimeria acervulina sporozoite death rate (%) (Eimeria acervulina [1]; 125 ppm) | Eimeria acervulina sporozoite death rate (%) (Eimeria acervulina [1]; 250 ppm) | Eimeria acervulina sporozoite death rate (%) (Eimeria acervulina [1]; 500 ppm) | Minimum concentration for killing 50% protozoa (sporozoites) (ppm) (Eimeria tenella [3]) | Minimum concentration for killing 50% protozoa (sporozoites) (ppm) (Eimeria acervulina [4]) | Minimum concentration for killing 50% protozoa (sporozoites) (ppm) (Eimeria maxima) | Anticoccidial index (ACI) (Eimeria tenella [6]) | Lesion index (Eimeria tenella [6]) | ADG after challenge inoculation (Eimeria tenella [6]) | Survival rate (%) (Eimeria tenella [6]) | Oocyst index (Eimeria tenella [6]) | Daily weight gain compared to negative control group (RWG, %) (Eimeria tenella [6]) | Appendix lesion score (Eimeria tenella [6]) | other results
1 | O=c1c(O)c(-c2ccc(O)c(O)c2)oc2cc(O)cc(O)c12 [Quercetin] | 0% | 0% | 0% | 8% | 34% | 47% | 68% | – | – | – | – | – | – | – | – | – | – | –
2 | O=C(O)c1cc(O)c(O)c(O)c1 [Gallic acid, gallic acid] | – | – | – | – | – | – | – | >500 ppm | >500 ppm | >500 ppm | – | – | – | – | – | – | – | inhibition at 5 ppm (Eimeria tenella [2]; 5 ppm, MDBK cells, 24 hours): 76%; inhibition at 10 ppm (Eimeria tenella [2]; 10 ppm, MDBK cells, 24 hours): 90.1%; Minimum concentration for killing 50% protozoa (sporozoites) (ppm) (Eimeria tenella [3]; listed as gallic acid): > 500 ppm; inhibition at 5 ppm (Eimeria tenella [5]; 5 ppm, MDBK cells): 0%; inhibition at 10 ppm (Eimeria tenella [5]; 10 ppm, MDBK cells): 0%
3 | CC[C@@H](C(=O)[C@@H](C)[C@@H](O)[C@H](C)[C@@H]1O[C@@H]([C@@H](CC)C(=O)O)CC[C@@H]1C)[C@H]1O[C@]2(C=C[C@@H](O)[C@]3(CC[C@@](C)([C@H]4CC[C@](O)(CC)[C@H](C)O4)O3)O2)[C@H](C)C[C@@H]1C [Salinomycin, salinomycin] | – | – | – | – | – | – | – | 125 ppm | 100 ppm | 250 ppm | 141 | 27 | 62 g/day | 93% | 20 | 94% | 2.7 | inhibition at 5 ppm (Eimeria tenella [2]; MDBK, 24 h): 50.1%; inhibition at 10 ppm (Eimeria tenella [2]; MDBK, 24 h): 56.4%; inhibition at 5 ppm (Eimeria tenella [5]; MDBK): 32.2%; inhibition at 10 ppm (Eimeria tenella [5]; MDBK): 34.8%
4 | N#CC(c1ccc(Cl)cc1)c1c(Cl)cc(-n2ncc(=O)[nH]c2=O)cc1Cl (stereo not drawn) [Diclazuril, diclazuril] | – | – | – | – | – | – | – | 500 ppm | >500 ppm | >500 ppm | 148 | 29 | 62 g/day | 97% | 10 | 93% | 2.88 | inhibition at 0.5 ppm (Eimeria tenella [2]; 0.5 ppm, MDBK cells, 24 hours): 0%; inhibition at 1 ppm (Eimeria tenella [2]; 1 ppm, MDBK cells, 24 hours): 6.3%; inhibition at 0.5 ppm (Eimeria tenella [5]; 0.5 ppm, MDBK cells): 45.9%; inhibition at 1 ppm (Eimeria tenella [5]; 1 ppm, MDBK cells): 52.9%
5 | O=c1c(O)c(-c2ccc(O)cc2)oc2cc(O)cc(O)c12 [Kaempferol] | 0% | 0% | 0% | 0% | 1% | 27% | 54% | – | – | – | – | – | – | – | – | – | – | –
6 | CC(C)(C)C1(O)CC2OC(=O)CC23C(=O)OC2OC(=O)C(O)C231 (stereo not drawn) [Bilobalide] | 0% | 0% | 0% | 8% | 14% | 41% | 51% | – | – | – | – | – | – | – | – | – | – | –
